Measured values: patent publication US20260062426A1, “CYCLIN DEPENDENT KINASE DEGRADERS AND METHODS OF USE THEREOF” (Differentiated Therapeutics Inc, priority 2023, published 2026)

Legend:
Assay type in all cases: cell-based
CDK2 = molecular target: T1, CDK2 (Homo sapiens, UniProt P24941); experiment: CDK2 HIBIT PQ (protein quantification), degradation; conditions: for CDK2 HIBIT PQ Max (%): Max = Maximum; for DC50: PQ = Protein Quantification
T1 construct: host or cells: HEK293
Method in brief: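 After overnight incubation at 37° C and 5% CO2 in 384-well plates (1.6×10^5 cells/well, 50 uL, DMEM with 10% FBS), HEK293 cells with HiBiT-tagged CDK2 were treated with compound for 6 hours. Detection used 20 μL of Nano-Glo HiBiT lytic reagent with LgBiT protein, 20 minutes of shaking at room temperature and an EnVision reading, with 0.1% DMSO as high control and medium alone as low control. These readings were the basis for DC50 and maximal degradation.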

CCNE1 = molecular target: T2, CCNE1 (Homo sapiens, UniProt P24864+P24941); experiment: CCNE1 HIBIT PQ (protein quantification), degradation; conditions: for CCNE1 HIBIT PQ Max (%): Max = Maximum; for DC50: PQ = Protein Quantification
T2 construct: host or cells: HEK293
Method in brief: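 HEK293 cells carrying HiBiT-tagged CCNE1 were grown in EMEM with 10% FBS and seeded in 384-well plates at 1.6×10⁵ cells/well in 50 uL, then incubated overnight at 37° C and 5% CO₂. Compound treatment lasted 6 hours, and CCNE1 protein was then measured with a HiBiT assay. High control was 0.1% DMSO-treated cells and low control was culture medium only. Maximal degradation and DC50 were derived from these readings.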

CDK9 = molecular target: T3, CDK9 (Homo sapiens, UniProt P50750); experiment: CDK9 HIBIT PQ (protein quantification), degradation; conditions: for Dmax / CDK9 HIBIT PQ Max (%): Max = Maximum; for DC50: PQ = Protein Quantification
T3 construct: host or cells: HEK293
T3 sequence (P50750 whole entry): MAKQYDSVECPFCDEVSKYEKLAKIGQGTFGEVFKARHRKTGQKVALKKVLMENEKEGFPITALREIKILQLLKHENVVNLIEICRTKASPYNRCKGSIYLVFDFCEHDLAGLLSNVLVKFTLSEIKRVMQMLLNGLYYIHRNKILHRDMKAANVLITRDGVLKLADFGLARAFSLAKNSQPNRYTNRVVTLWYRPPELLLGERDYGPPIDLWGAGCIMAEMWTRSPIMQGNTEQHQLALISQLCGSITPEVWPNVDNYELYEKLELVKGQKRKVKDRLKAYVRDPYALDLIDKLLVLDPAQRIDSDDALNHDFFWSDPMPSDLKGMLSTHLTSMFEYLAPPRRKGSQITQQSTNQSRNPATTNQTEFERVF
Method in brief: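 CDK9 protein was read by HiBiT assay in treated HEK293 cells carrying HiBiT-tagged CDK9, seeded at 1.6×10^5 cells/well in 50 uL in 384-well plates and incubated overnight at 37° C and 5% CO2. Controls were 0.1% DMSO-treated cells (high) and culture medium only (low). Maximal degradation, Dmax and DC50 were calculated from these readings.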

| SMILES | CDK2 HIBIT PQ Max (%) (CDK2) | DC50 (CDK2) [nM] | CCNE1 HIBIT PQ Max (%) (CCNE1) | Dmax (CDK9) [%] | DC50 (CCNE1) [nM] | DC50 (CDK9) [nM] | CDK9 HIBIT PQ Max (%) (CDK9) |
| --- | --- | --- | --- | --- | --- | --- | --- |
| CC(C)Oc1c(-c2cn[nH]c2)ncn2nc(Nc3ccc(S(=O)(=O)N(C)CCCN4C5CC4CN(c4ccc6c(c4)n(C)c(=O)n6C4CCC(=O)NC4=O)C5)cc3F)nc12 (stereo not shown) [Compound 70] | 61 | 0.3 | 20 | 9 | – | – | – |
| CC(C)Oc1c(-c2cn[nH]c2)ncn2nc(Nc3ccc(S(=O)(=O)c4cccc(C(C)N5CCC(c6ccc7c(N8CCC(=O)NC8=O)nn(C)c7c6)CC5)c4)cc3F)nc12 (racemic) [Compound 85] | 93 | 1.5 | 80 | 82 | 9.64 | 12 | – |
| CC(C)Oc1c(-c2cn[nH]c2)ncn2nc(Nc3ccc(S(=O)(=O)N4CCC[C@H](CN5CC[C@@H](c6ccc7c(N8CCC(=O)NC8=O)nn(C)c7c6)CC5(C)C)C4)cc3F)nc12 (single isomer, unassigned) [Compound 102] | 90 | 0.5 | 76 | – | 1.34 | 5.65 | 75 |
| CC(C)Oc1c(-c2cn[nH]c2)ncn2nc(Nc3ccc(S(=O)(=O)c4cccc(C[C@H]5C[C@@H](c6ccc7c(c6)CN([C@H]6CCC(=O)NC6=O)C7=O)C5)c4)cc3F)nc12 (stereo in doubt) [Compound 81, (S)-3-(5-((1r,3R)-3-(3-((3-fluoro-4-((8-isopropoxy-7-(1H-pyrazol-4-yl)-[1,2,4]triazolo[1,5-c]pyrimidin-2-yl)amino)phenyl)sulfonyl)benzyl)cyclobutyl)-1-oxoisoindolin-2-yl)piperidine-2,6-dione] | 86 | 24.2 | 57 | 1 | 62.8 | – | – |
| CC(C)Oc1c(-c2cn[nH]c2)ncn2nc(Nc3ccc(S(=O)(=O)c4cccc(C(C)N5CCN(c6ccc7c(N8CCC(=O)NC8=O)nn(C)c7c6)CC5)c4)cc3F)nc12 (single isomer, unassigned) [Compound 99] | 94 | 3 | 52 | – | 10.2 | 37.3 | 64 |
| CC(C)Oc1c(-c2cn[nH]c2)ncn2nc(N[C@H]3CCN(S(=O)(=O)c4cccc(CN5CCN(c6ccc7c(N8CCC(=O)NC8=O)nn(C)c7c6)CC5)c4)C[C@H]3C)nc12 [Compound 40] | 96 | 3.6 | 89 | 103 | 8.91 | 16.7 | – |
| CC(C)Oc1c(-c2cn[nH]c2)ncn2nc(Nc3ccc(S(=O)(=O)c4cccc(CN5C6CCC5CN(c5ccc7c(N8CCC(=O)NC8=O)nn(C)c7c5)C6)c4)cc3F)nc12 [Compound 46] | 95 | 3.6 | 48 | 71 | – | 92.1 | – |
| CC(C)Oc1c(-c2cn[nH]c2)ncn2nc(Nc3ccc(S(=O)(=O)c4cccc(C[C@H]5C[C@@H](c6ccc7c(c6)CN(C6CCC(=O)NC6=O)C7=O)C5)c4)cc3F)nc12 (stereo partly shown) [Compound 29, 3-{1-oxo-5-[(1s,3s)-3-{[3-(3-fluoro-4-{[8-isopropoxy-7-(1H-pyrazol-4-yl)-[1,2,4]triazolo[1,5-c]pyrimidin-2-yl]amino}benzenesulfonyl)phenyl]methyl}cyclobutyl]-3H-isoindol-2-yl}piperidine-2,6-dione] | 94 | 8 | 78 | 12 | 18.7 | – | – |
| CC(C)Oc1c(-c2cn[nH]c2)ncn2nc(Nc3ccc(S(=O)(=O)N(C)CCCN4CCC(c5ccc6c(c5)n(C)c(=O)n6C5CCC(=O)NC5=O)CC4)cc3)nc12 (racemic) [Compound 54] | 89 | 0.1 | 82 | 74 | 0.59 | 1.57 | – |
| CC(C)Oc1c(-c2cn[nH]c2)ncn2nc(Nc3ccc(S(=O)(=O)N(C)CCCN4CCN(c5ccc6c(c5)n(C)c(=O)n6C5CCC(=O)NC5=O)CC4)cc3F)nc12 (stereo not shown) [Compound 66] | 92 | 0.1 | 70 | 69 | 0.93 | 1.87 | – |
| CC(C)Oc1c(-c2cn[nH]c2)ncn2nc(Nc3ccc(S(=O)(=O)N4CCC5(CCN(C6CCN(c7ccc8c(c7)n(C)c(=O)n8C7CCC(=O)NC7=O)CC6)C5)C4)cc3F)nc12 (stereo not shown) [Compound 36] | 89 | 2.9 | 63 | 87 | 22.1 | 57.6 | – |
